{"source": "patent US20240124501A1", "about": "“VANADIUM COMPOUNDS AND METHODS OF MAKING AND USING THEREOF” (priority 2022, published 2024)", "key": {"[1]": {"tested_on": "Mycobacterium smegmatis (M. smeg)", "assay": "Growth inhibition of M. smeg (MIC/IC50 measurement)", "assay_type": "cell-based, Mycobacterium smegmatis mc^2 155", "details": "Mycolicibacterium smegmatis; M. smeg in 7H9 media, 24 h at 37° C., OD600; mean and SD of triplicate", "method": "Cell Culture and Growth Conditions. M. smeg was cultured in Middlebrook 7H9 medium (Ref. no. 271310; Difco) supplemented with 10% OAD (oleic acid, albumin, dextrose), 0.2% (v/v) glycerol, and […], and incubated with shaking for 24 h at 37° C. M. smeg was grown to a mid-logarithmic growth phase assessed via spectrophotometry and occurred at an optical density of 0.6 at 600 nm (OD600). In some experiments where M. smeg was treated with vanadium complexes, the cell culture supernatant was collected for ^51V NMR studies.\nMinimum Inhibitory Concentration (MIC) Measurements. The inhibitory activity of the tested compounds was determined by measuring the lowest concentration that caused bacterial growth inhibition of 50% (IC50). M. smeg was grown to the mid-log phase of 0.6-0.8 at OD600. The final concentrations of the compounds used in these studies were obtained using serial dilutions to a final concentration range of 2 to 0.0039 mM and placed with M. smeg in 7H9 media into a 96-well plate. Plates were incubated for 24 h at 37° C. A Bio-Rad Benchmark Reader (Bio-Rad Laboratories: Hercules, CA, USA) was used to check the cell viability at OD600 at appropriate times. IC50 was determined to be the lowest concentration of complexes that inhibited M. smeg growth by 50%.\nStatistical Analysis. For each treatment, data were represented as the mean and standard deviation of the IC50 from triplicate measurements. The IC50 was calculated using GraFit 5 data analysis software (version 5.0.13). • Chemistry\nPreparation of Stock Solutions for Cell Culture Experiments. A 20 mM stock solution of each respective V-complex and its free ligands was prepared in DMSO and diluted with 7H9 media to a concentration of 2.0 mM for biological studies."}, "[2]": {"tested_on": "HFF-1 (non-cancer human fibroblasts)", "assay": "Anti-proliferative activity, MTT assay, HFF-1 cells (Example 5)"}, "[3]": {"tested_on": "T98g (human glioblastoma cells)", "assay": "Anti-proliferative activity, MTT assay, T98g cells (Example 5)", "assay_type": "cell-based", "details": "read-out: IC50 (T98g), condition (B)"}, "[4]": {"tested_on": "HFF-1 (human foreskin fibroblasts)", "assay": "Cytotoxicity, MTT assay, HFF-1 cells (Example 4)", "assay_type": "cell-based", "details": "72 h treatment; mixed with medium ~1 min before treatment; read-out: IC50 HFF-1 (fresh)", "method": "(§1) Cell Culture and Growth Conditions. The well-established human glioblastoma multiforme cell line (T98 g) and human foreskin fibroblast (HFF-1) cell lines were purchased from American Type Culture Collection (ATCC, cat. no. CRL-1690 and SCRC-1041). Due to their limited life span in culture, HFF-1 cells were used at passages four to six. The cells were cultured in Advanced DMEM (Thermo Fisher Scientific cat. no. 12491-015), supplemented with L-glutamine (2.0 mM), antibiotic-antimycotic mixture (100 U mL^−1 penicillin, […] streptomycin, and […] amphotericin B), and fetal calf serum (FCS; heat-inactivated; 2% vol). For proliferation and cytotoxicity experiments, cells were seeded in 96-well plates at an initial density of 1.5×10^3 viable cells per well in 100 µL medium and left to attach overnight.\nFreshly prepared stock solutions of V(V) complexes (10 mM in DMSO) were used for cell assays. […]\nEach treatment included six replicate wells with cells and two background wells without cells that contained the same components. […] After that, the medium was removed, the blue formazan crystals were dissolved in 0.10 mL per well of DMSO, and the absorbance at 600 nm was measured using a Victor V3 plate reader. […]"}, "[5]": {"tested_on": "T98g cells (human glioblastoma multiforme)", "assay": "Antiproliferative activity, MTT assay, T98g cells (Example 4)", "assay_type": "cell-based", "details": "72 h treatment", "method": "as §1\n(§2) Freshly prepared stock solutions of V(V) complexes (10 mM in DMSO) were used for cell assays. […] Stock solutions of the treatment complexes were diluted with fully supplemented cell culture media to the required final concentrations, and the resultant media were either added to the cells within 1 min (fresh solutions) or left in cell culture incubator (310 K, 5% CO2) for 24 h prior to the cell treatments (aged solutions).\n(§3) Each treatment included six replicate wells with cells and two background wells without cells that contained the same components. After the addition of treatment complexes, the plates were incubated for 72 h at 310 K and 5% CO2, then MTT reagent [[…], Sigma M5655] was added (50 μL per well of freshly prepared 2.0 mg/mL solution in complete medium), and incubation was continued for 4-6 h. After that, the medium was removed, the blue formazan crystals were dissolved in 0.10 mL per well of DMSO, and the absorbance at 600 nm was measured using a Victor V3 plate reader. Typically, the treatment complexes were applied in a series of nine two-fold dilutions, starting from (100±20) μM V, plus the vehicle control. Exact V concentrations in the assays were verified by ICP-MS measurements using samples of cell culture media and used in the calculations of the IC50 values. Fitting of the experimental data and calculations of the IC50 values were performed using Origin 6.1 software (Microcal Origin, 1999). For all the cell assays, consistent results were obtained in at least two independent experiments using different passages of cells and varying stock solutions of the treatment complexes."}, "[6]": {"tested_on": "T98 g cells (human glioblastoma multiforme)", "assay": "IC50 for 72 h treatments with fresh vanadium(V) compounds in T98 g cells (Example 7)", "assay_type": "cell-based", "details": "72 h treatment, each measurement reported, read-out: IC50 Value(s) (converted)", "method": "as §1, with “μL” for “µL”\nas §2\nas §3, with “[…]” for “μM”\nIn cases where multiple measurements were performed, the value determined for each measurement are reported."}, "[7]": {"tested_on": "T98g cells", "assay": "V uptake by T98g cells (ICPMS)", "assay_type": "cell-based, human", "details": "30 min treatment with 100 μM of freshly diluted V complexes", "method": "For V uptake experiments, T98 g cells were grown to ˜80% confluence in 12-well plates (three replicates per treatment). […] After that, V-containing media were removed, the cell layers were washed twice with phosphate buffered saline (PBS), detached with TrypLE solution (Thermo Fisher Scientific Cat. No. 12605028), pelleted, and washed again with PBS. Detachment and washing of cell pellets were used to remove V that was absorbed on the culture plates and on the cell surface. Cell numbers in each pellet were counted with a Countess automatic counter, typical numbers were (5±1)×10^5 cells/well, cell viability was >95% (Trypan blue staining). Cell pellets were digested with 0.20 mL of 65% HNO3 (trace pure, Merck 225711) for 3 d at 295 K, then diluted with Milli-Q water to 1.0 mL for ICPMS analysis. The analysis was performed with a Perkin-Elmer Nexion 350× spectrometer, using a standard V(IV) solution (Choice Analytical, Australia) and 193Ir peak as an internal standard. The measurements were performed in kinetic energy discrimination (KED) mode to eliminate the interference of [^35Cl^16O]^+ ions with the determination of ^51V^+. Cellular V concentrations were expressed in atoms V per cell. For all the cell assays, consistent results were obtained in at least two independent experiments, using different passages of cells and different stock solutions of the treatment compounds."}, "[8]": {"details": "complexes mixed with cell culture medium ~1 min (295K) before treatment, read-out: IC50 T98g (fresh)"}, "[9]": {"details": "pre-incubated with cell culture medium 24 h at 310K, 5% CO2, read-out: IC50 T98g (aged)"}}, "note": "“And” between values parts separate entries of the source, which are not always exact repeats. Equal values may be shown once. Read-outs that look alike come from different tables or passages of the source."}
{"smiles": "CC(C)(C)c1cc(O)c(O)c(C(C)(C)C)c1", "note": "[H2dtb, 3,5-di-tert-butylcatechol]", "values": [{"measurement": "IC50", "setting": "[1]", "value": "241 ± 0.07", "unit": "µM"}, {"measurement": "IC50", "setting": "[2]; Homo sapiens, HFF-1, read-out: IC50 (HFF-1), condition (B)", "value": "24 ± 2", "unit": "µM"}, {"measurement": "IC50", "setting": "[3]", "value": "15 ± 3", "unit": "µM"}]}
{"smiles": "N.N.[Cl][Pt][Cl]", "note": "[cisplatin]", "values": [{"measurement": "IC50", "setting": "[4]", "value": "45 ± 4", "unit": "µM"}, {"measurement": "IC50", "setting": "[5]; [8]", "value": "33 ± 1", "unit": "µM"}, {"measurement": "IC50", "setting": "[5]; [9]", "value": "> 50", "unit": "µM"}]}
{"smiles": "Oc1ccccc1O", "note": "[H2cat, catechol]", "values": [{"measurement": "IC50", "setting": "[1]", "value": "109 ± 0.05", "unit": "µM"}]}
{"smiles": "CCOc1cccc2c1[O][V]1(=[O])([O]c3cc(C45CC6CC(CC(C6)C4)C5)cc(C)c3[O]1)[N](CCO)CCN=C2", "values": [{"measurement": "IC50", "setting": "[6]", "value": "14 ± 2", "unit": "µM"}]}
{"smiles": "CC(C)(C)c1cc2c(c(C34CC5CC(CC(C5)C3)C4)c1)[O][V]1(=[O])([O]c3ccc(Cl)cc3C=NCC[N]1CCO)[O]2", "values": [{"measurement": "IC50", "setting": "[6]", "value": "3.4 ± 0.2", "unit": "µM"}]}
{"smiles": "CCOc1cccc2c1[O][V]1(=[O])([O]c3cc(C(C)(C)C)cc(C(C)(C)C)c3[O]1)[N](CCO)CCN=C2", "values": [{"measurement": "IC50", "setting": "[6]", "value": "2.4 ± 0.3", "unit": "µM"}]}
{"smiles": "CC(C)(C)c1cc2c(c(C(C)(C)C)c1)[O][V]1(=[O])([O]c3cc4ccc(=O)oc4cc3[O]1)[N](CCO)CCN=C2", "values": [{"measurement": "IC50", "setting": "[6]", "value": "4.2 µM and 6.9 µM"}]}
{"smiles": "CC(C)(C)c1cccc2c1[O][V]1(=[O])([O]c3cc(C45CC6CC(CC(C6)C4)C5)cc(C45CC6CC(CC(C6)C4)C5)c3[O]1)[N](CCO)CCN=C2", "values": [{"measurement": "IC50", "setting": "[6]", "value": "5.3 ± 1.6", "unit": "µM"}]}
{"smiles": "CC(C)(C)c1cc2c(c(C34CC5CC(CC(C5)C3)C4)c1)[O][V]1(=[O])([O]c3ccccc3C=NCC[N]1CCO)[O]2", "values": [{"measurement": "IC50", "setting": "[6]", "value": "9.3 ± 2.1", "unit": "µM"}]}
{"smiles": "[O]=[V]12([O]c3ccc(Cl)cc3C=NCC[N]1CCO)[O]c1cc(C34CC5CC(CC(C5)C3)C4)cc(C34CC5CC(CC(C5)C3)C4)c1[O]2", "values": [{"measurement": "IC50", "setting": "[6]", "value": "11 ± 1", "unit": "µM"}]}
{"smiles": "[Na+].[Na+].[Na+].[O]=[V]([O-])([O-])[O-]", "note": "[Na3VO4]", "values": [{"measurement": "Uptake (T98g) of V", "setting": "[7]", "value": "(3.3 ± 0.8) × 10^7 atoms per cell"}, {"measurement": "IC50", "setting": "[4]", "value": "23 ± 3", "unit": "µM"}, {"measurement": "viability of HFF-1 cells compared with the vehicle control", "setting": "[2]; subtoxic concentrations, not seen in T98g", "value": "120-140%"}, {"measurement": "IC50", "setting": "[5]; [8]", "value": "~40 µM and 26 µM"}, {"measurement": "IC50", "setting": "[5]; [9]", "value": "24 ± 4", "unit": "µM"}]}
{"smiles": "CCOc1cccc2c1[O][V]1(=[O])([O]c3cc(C45CC6CC(CC(C6)C4)C5)cc(C45CC6CC(CC(C6)C4)C5)c3[O]1)[N](CCO)CCN=C2", "values": [{"measurement": "IC50", "setting": "[6]", "value": "3.3 ± 0.4", "unit": "µM"}]}
{"smiles": "O=[N+]([O-])c1ccc(O)c(O)c1", "note": "[H24NO2, 4-nitrocatechol]", "values": [{"measurement": "IC50", "setting": "[1]", "value": "610 ± 0.05", "unit": "µM"}]}
{"smiles": "N#Cc1ccc(O)c(O)c1", "note": "[H2CN, 3,4-dihydroxybenzonitrile]", "values": [{"measurement": "IC50", "setting": "[1]", "value": "447 ± 0.04", "unit": "µM"}]}
{"smiles": "COc1cccc(O)c1O", "note": "[H23OMet, 3-methoxy catechol]", "values": [{"measurement": "IC50", "setting": "[1]", "value": "262 ± 0.15", "unit": "µM"}]}
{"smiles": "CCOc1cccc2c1[O][V]1(=[O])([O]c3cc(C45CC6CC(CC(C6)C4)C5)cc(C(C)(C)C)c3[O]1)[N](CCO)CCN=C2", "values": [{"measurement": "IC50", "setting": "[6]", "value": "2.1 ± 0.3", "unit": "µM"}]}
{"smiles": "O=c1ccc2cc(O)c(O)cc2o1", "note": "[H2Coum, 6,7-dihydroxycoumarin]", "values": [{"measurement": "IC50", "setting": "[1]", "value": "506 ± 0.28", "unit": "µM"}]}
{"smiles": "Oc1c(O)c(Br)c(Br)c(Br)c1Br", "note": "[H2tbc, tetrabromocatechol]", "values": [{"measurement": "IC50", "setting": "[1]", "value": "416 ± 0.19", "unit": "µM"}]}
